# Read-outs that look alike come from different tables or passages of the source.
# Experiments:
# [1] = cited from earlier work
# [2] = ELF pharmacokinetics in the COMBINE murine neutropenic pneumonia model; details: for k el: female, CD-1, mouse, epithelial lining fluid (ELF), sc; for K a-ELF (absorption rate constant into ELF compartment) / V ELF (volume of distribution in ELF compartment): best-fit one-compartment model
# Method: (§1) The model followed the COMBINE protocol with laboratory-specific detailed methods as follows.[6] Specific pathogen free CD-1, female mice 6–8 weeks old were acquired from Charles River Laboratories, Inc. (Raleigh, NC, USA). All animals were allowed to acclimatize for 72 h before any study procedures and were housed as groups of six at controlled room temperature in HEPA-filtered cages (Innovive, San Diego, CA, USA). Study rooms were maintained with diurnal cycles (12 h light/12 h dark) and food and water were provided ad libitum.
# (§2) Neutropenia was achieved through 0.2 mL intraperitoneal (IP) administrations of cyclophosphamide 150 mg/kg on day minus 4 and an additional 100 mg/kg on day minus 1. A predictable degree of renal impairment was produced using 5 mg/kg of uranyl nitrate (Electron Microscopy Sciences, Hatfield, PA, USA) dissolved in sterile water administered as a 0.2 mL IP injection on day minus 3. […] Mice were anaesthetised using inhaled isoflurane, manually restrained upright and infected with 50 µL of bacterial suspension via the nares. Each bacterial inoculation suspension was used within 30 minutes of initial preparation.
# (§3) The purpose of these studies was to establish HSRs in both plasma and ELF in the COMBINE murine neutropenic pneumonia model equivalent to clinical doses of meropenem (2 g every 8 h as 3 h infusion),[9] cefiderocol (2 g every 8 h as 3 h infusion)[10] and tobramycin (7 mg/kg as 0.5 h infusion)[11–13] based on unbound (free) exposures.
# (§4) At predefined timepoints (shown in Figures 1–3), groups of six mice had blood sampled via retro-orbital bleeding (two time points, under anaesthesia with isoflurane 2%–3% v/v in 100% oxygen via inhalation) and/or cardiac puncture (one terminal time point). Proparacaine hydrochloride ophthalmic solution 0.5% was applied to the eye (1–2 drops) after blood sampling via retro-orbital bleeding. The volume of blood collected was 0.15 mL per sample via retro-orbital bleeding with subsequent fluid replacement using 0.2 mL normal saline given IP. Mice were euthanized by CO2 exposure before cardiac puncture. Following blood collection by cardiac puncture, but before cervical dislocation, bronchoalveolar lavage (BAL) fluid was collected from the mice at the same time points. A catheter was inserted into the trachea of the mice, and lungs were lavaged with four separate aliquots of 0.4 mL of normal saline. The BAL fluid was withdrawn immediately after injection and pooled for each animal. Pooled BAL was centrifuged for 10 min at 4°C and the supernatant was collected for analysis.
# (§5) Drug concentrations in ELF were estimated by correcting the drug concentration in BAL fluid for the dilution with normal saline during lung lavage using the following formula: compoundELF = compoundBAL × (ureaplasma/ureaBAL), where compoundBAL is the measured drug concentration in the BAL fluid sample and ureaplasma and ureaBAL are the concentrations of urea in paired plasma and BAL fluid samples from each mouse, respectively. Owing to the lack of albumin in BAL fluid, total ELF concentrations were considered unbound.
# (§6) Statistical outliers for each respective analyte were removed by the interquartile range method. Previously reported meropenem, cefiderocol and plazomicin (an aminoglycoside similar to tobramycin) plasma HSRs developed in alternative murine models were used as a baseline.[19],[20] Mathematical modifications were made to the baseline regimens as necessary to achieve translational exposures in the COMBINE model and repeat confirmatory PK studies were undertaken for both plasma and ELF.
# [3] = cited from earlier work; remark: listed apart in the source
# [4] = Plasma pharmacokinetics in the COMBINE murine neutropenic pneumonia model; details: for k el: female, CD-1, mouse, plasma, sc; for K a (absorption rate constant into central compartment) / V plasma (volume of distribution in central compartment): best-fit one-compartment model
# Method: as §1, §2, §3, §4, §5, §6
# [5] = test system: K. pneumoniae CDC 851; design: method as in earlier work; details: cited from earlier work
# [6] = Ex vivo tobramycin plasma protein binding in mice; type: in vitro ADME; details: mouse plasma; for fraction unbound at 1 h: subcutaneous
# Method: Escalating single doses of tobramycin (2.5, 5 and 10 mg/kg) were administered subcutaneously to determine tobramycin plasma protein binding. Triplicate pooled plasma and ultrafiltrate samples were collected at 1 h (5 mice per replicate, 15 mice per dose) and stored at −80°C until concentration determination. Whole blood was collected in K2EDTA tubes and then subsequently centrifuged at 4°C at 3000g for 10 minutes. Plasma was separated (total plasma) and 900 µL was added to an ultrafiltration device (Centrifree®, Merck Millipore Ltd, Ireland) and centrifuged using a fixed rotor at 10°C at 2000g for an additional 45 minutes to obtain protein free ultrafiltrate. The triplicate free and total tobramycin concentrations were averaged and then free fractions were calculated using the equation: free fraction = concentrationultrafiltrate/concentrationtotal plasma.
# Mean percentages of protein binding (±standard deviation) were 27.1% (2.9%), 20.5% (9.3%) and 19.8% (1.5%) at the 1-h timepoint after receiving doses of 2.5, 5 and 10 mg/kg, respectively.
# [7] = design: method as in PMID 33371322, PMID 31724042, PMID 15107149; details: cited from earlier work
# [8] = clinical; details: human, in vivo
# Method: as §3
# [9] = human ELF, 2 g every 8 h as a 3 h infusion
# [10] = human plasma, 2 g every 8 h as a 3 h infusion
# [11] = human, 7 mg/kg as 0.5 h infusion
smiles,measurement,setting,value
"C[C@@H](O)[C@H]1C(=O)N2C(C(=O)O)=C(S[C@@H]3CN[C@H](C(=O)N(C)C)C3)[C@H](C)[C@H]12 [Meropenem, meropenem]",%fT > MIC for a MIC of 1 µg/mL,[1]; [9],90%
same,%fT > MIC for a MIC of 2 µg/mL,[1]; [9],71%
same,%fT > MIC for a MIC of 4 µg/mL,[1]; [9],50%
same,%fT > MIC for a MIC of 8 µg/mL,[1]; [9],16%
same,%fT > MIC for a MIC of 16 µg/mL,[1]; [9],0%
same,%fT > MIC for a MIC of 32 µg/mL,[1]; [9],0%
same,%fT > MIC for a MIC of 64 µg/mL,[1]; [9],0%
same,%fT > MIC for a MIC of 128 µg/mL,[1]; [9],0%
same,k el,[2],0.000694 s⁻¹
same,%fT > MIC for a MIC of 1 µg/mL,"[2]; mouse ELF, ELF HSR",78%
same,%fT > MIC for a MIC of 2 µg/mL,"[2]; mouse ELF, ELF HSR",62%
same,%fT > MIC for a MIC of 4 µg/mL,"[2]; mouse ELF, ELF HSR",43%
same,%fT > MIC for a MIC of 8 µg/mL,"[2]; mouse ELF, ELF HSR",14%
same,%fT > MIC for a MIC of 16 µg/mL,"[2]; mouse ELF, ELF HSR",3%
same,%fT > MIC for a MIC of 32 µg/mL,"[2]; mouse ELF, ELF HSR",0%
same,%fT > MIC for a MIC of 64 µg/mL,"[2]; mouse ELF, ELF HSR",0%
same,%fT > MIC for a MIC of 128 µg/mL,"[2]; mouse ELF, ELF HSR",0%
same,K a-ELF (absorption rate constant into ELF compartment),[2]; mouse ELF,7.00 h⁻¹
same,V ELF (volume of distribution in ELF compartment),[2]; mouse ELF,1.60 L/kg
same,%fT > MIC for a MIC of 1 µg/mL,[3]; [10],100%
same,%fT > MIC for a MIC of 2 µg/mL,[3]; [10],100%
same,%fT > MIC for a MIC of 4 µg/mL,[3]; [10],100%
same,%fT > MIC for a MIC of 8 µg/mL,[3]; [10],78%
same,%fT > MIC for a MIC of 16 µg/mL,[3]; [10],50%
same,%fT > MIC for a MIC of 32 µg/mL,[3]; [10],19%
same,%fT > MIC for a MIC of 64 µg/mL,[3]; [10],0%
same,%fT > MIC for a MIC of 128 µg/mL,[3]; [10],0%
same,k el,[4],0.00754 s⁻¹
same,K a (absorption rate constant into central compartment),[4]; mouse plasma,1.34 h⁻¹
same,V plasma (volume of distribution in central compartment),[4]; mouse plasma,0.04 L/kg
same,%fT > MIC for a MIC of 1 µg/mL,"[4]; mouse plasma, plasma HSR",100%
same,%fT > MIC for a MIC of 2 µg/mL,"[4]; mouse plasma, plasma HSR",100%
same,%fT > MIC for a MIC of 4 µg/mL,"[4]; mouse plasma, plasma HSR",94%
same,%fT > MIC for a MIC of 8 µg/mL,"[4]; mouse plasma, plasma HSR",75%
same,%fT > MIC for a MIC of 16 µg/mL,"[4]; mouse plasma, plasma HSR",55%
same,%fT > MIC for a MIC of 32 µg/mL,"[4]; mouse plasma, plasma HSR",29%
same,%fT > MIC for a MIC of 64 µg/mL,"[4]; mouse plasma, plasma HSR",5%
same,%fT > MIC for a MIC of 128 µg/mL,"[4]; mouse plasma, plasma HSR",0%
"NC[C@H]1O[C@H](O[C@H]2[C@H](O)[C@@H](O[C@H]3O[C@H](CO)[C@@H](O)[C@H](N)[C@H]3O)[C@H](N)C[C@@H]2N)[C@H](N)C[C@@H]1O [Tobramycin, tobramycin]",MIC,[5],16 mg/L
same,Unbound fraction in plasma,"[6]; average of 2.5, 5 and 10 mg/kg",77.6%
same,fraction unbound at 1 h,"[6]; 1 h after 2.5 mg/kg subcutaneously, ultrafiltration, read-out: Mean percentage of protein binding (±standard deviation) (converted)",0.729
same,fraction unbound at 1 h,"[6]; 1 h after 5 mg/kg subcutaneously, ultrafiltration, read-out: Mean percentage of protein binding (±standard deviation) (converted)",0.795
same,fraction unbound at 1 h,"[6]; 1 h after 10 mg/kg subcutaneously, ultrafiltration, read-out: Mean percentage of protein binding (±standard deviation) (converted)",0.802
same,fraction unbound at 1 h,"[6]; average of 2.5, 5 and 10 mg/kg, read-out: Plasma protein binding, average across the three doses (converted)",0.776
same,AUCELF/AUCplasma penetration ratio,"[1]; human, population PK analysis",0.64
same,k el,[2],9.72e-05 s⁻¹
same,K a-ELF (absorption rate constant into ELF compartment),[2]; mouse ELF,1.74 h⁻¹
same,V ELF (volume of distribution in ELF compartment),[2]; mouse ELF,0.79 L/kg
same,ELF fAUC0-24,"[2]; murine, ELF HSR",76 µg·h/mL
same,ELF fCmax,"[2]; murine, ELF HSR",6.6 mg/L
same,plasma fAUC0-24,[3]; [11],103 µg·h/mL
same,plasma fCmax,[3]; [11],18.3 mg/L
same,Human plasma protein binding,[7],10%
same,k el,[4],8.61e-05 s⁻¹
same,K a (absorption rate constant into central compartment),[4]; mouse plasma,23.68 h⁻¹
same,V plasma (volume of distribution in central compartment),[4]; mouse plasma,0.37 L/kg
same,plasma fAUC0-24,"[4]; murine, plasma HSR",103 µg·h/mL
same,plasma fCmax,"[4]; murine, plasma HSR",17.7 mg/L
same,Kp,[8],0.69
same,ELF fAUC0-24,[8]; 7 mg/kg,79 µg·h/mL
same,ELF fCmax,[8]; 7 mg/kg,6.8 mg/L
